Assay results published in ChEMBL document CHEMBL1909046, “DrugMatrix in vitro pharmacology data”.
pIC50, pKi: −log10 of the molar value.

Columns and labels:
[1] = molecular target: T1, Receptor-type tyrosine-protein phosphatase C (Homo sapiens, UniProt P08575); set-up: species or system Escherichia coli;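 note: inhibition of CD45 enzyme activity measured using DiFMUP as substrate; in other assays of this panel Not Active means under 50% inhibition at 10 µM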
T1 sequence (P08575 whole entry): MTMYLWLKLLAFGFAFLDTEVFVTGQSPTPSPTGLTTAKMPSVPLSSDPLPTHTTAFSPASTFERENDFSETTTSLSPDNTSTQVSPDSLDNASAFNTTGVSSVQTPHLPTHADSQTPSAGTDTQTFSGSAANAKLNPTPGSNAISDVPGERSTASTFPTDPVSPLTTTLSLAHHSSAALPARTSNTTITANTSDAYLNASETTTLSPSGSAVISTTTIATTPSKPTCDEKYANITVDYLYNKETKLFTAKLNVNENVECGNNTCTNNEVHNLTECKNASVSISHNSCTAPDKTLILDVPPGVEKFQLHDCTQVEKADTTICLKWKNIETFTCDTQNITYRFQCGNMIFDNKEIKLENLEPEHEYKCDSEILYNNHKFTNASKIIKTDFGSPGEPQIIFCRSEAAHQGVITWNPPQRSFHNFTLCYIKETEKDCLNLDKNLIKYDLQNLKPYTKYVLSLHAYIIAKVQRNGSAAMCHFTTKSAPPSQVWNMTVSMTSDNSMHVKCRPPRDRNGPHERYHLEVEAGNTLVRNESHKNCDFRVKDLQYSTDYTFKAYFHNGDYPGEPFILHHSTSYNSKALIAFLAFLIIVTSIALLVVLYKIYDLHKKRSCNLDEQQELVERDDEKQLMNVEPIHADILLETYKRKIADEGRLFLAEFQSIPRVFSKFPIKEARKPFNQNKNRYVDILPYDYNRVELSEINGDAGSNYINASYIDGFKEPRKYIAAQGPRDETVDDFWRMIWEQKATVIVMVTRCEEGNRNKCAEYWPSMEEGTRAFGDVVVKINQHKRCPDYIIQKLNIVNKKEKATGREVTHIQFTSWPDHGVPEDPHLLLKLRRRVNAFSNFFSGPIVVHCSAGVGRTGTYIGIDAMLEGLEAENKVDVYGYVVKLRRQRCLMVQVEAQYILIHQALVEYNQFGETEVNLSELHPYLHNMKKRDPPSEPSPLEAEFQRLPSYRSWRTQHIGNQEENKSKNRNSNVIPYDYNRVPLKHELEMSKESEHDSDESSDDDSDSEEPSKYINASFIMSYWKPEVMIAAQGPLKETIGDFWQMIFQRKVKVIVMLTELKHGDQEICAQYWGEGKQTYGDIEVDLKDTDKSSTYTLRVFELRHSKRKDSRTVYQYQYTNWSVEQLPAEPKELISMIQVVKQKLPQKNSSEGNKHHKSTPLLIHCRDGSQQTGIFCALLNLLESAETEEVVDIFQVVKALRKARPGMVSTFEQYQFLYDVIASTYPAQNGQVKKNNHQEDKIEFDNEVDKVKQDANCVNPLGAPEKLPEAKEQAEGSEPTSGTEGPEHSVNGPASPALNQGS

[2] = molecular target: T2, Amine oxidase [flavin-containing] A (Homo sapiens, UniProt P21397); test: DRUGMATRIX: Monoamine Oxidase MAO-A enzyme inhibition (substrate: Kynuramine); set-up: species or system BTI-TN-5B1-4; conditions: bti-tn-5b1-4; Not Active = under 50% inhibition at 10 µM
T2 sequence (P21397 whole entry): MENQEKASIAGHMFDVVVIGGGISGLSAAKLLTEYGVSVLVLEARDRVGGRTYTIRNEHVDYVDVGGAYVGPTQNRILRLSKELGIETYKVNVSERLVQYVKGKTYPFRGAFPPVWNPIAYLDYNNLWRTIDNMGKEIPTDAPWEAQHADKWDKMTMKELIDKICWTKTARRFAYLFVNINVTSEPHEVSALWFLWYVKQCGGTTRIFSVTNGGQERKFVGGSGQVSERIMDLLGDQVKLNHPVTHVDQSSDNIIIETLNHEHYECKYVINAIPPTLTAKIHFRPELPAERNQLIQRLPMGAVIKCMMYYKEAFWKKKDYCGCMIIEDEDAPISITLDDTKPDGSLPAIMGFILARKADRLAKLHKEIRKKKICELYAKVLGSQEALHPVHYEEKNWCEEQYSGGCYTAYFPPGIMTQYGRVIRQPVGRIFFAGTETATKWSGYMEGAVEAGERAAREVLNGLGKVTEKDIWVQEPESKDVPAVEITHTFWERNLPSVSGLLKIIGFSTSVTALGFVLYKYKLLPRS

[3] = molecular target: T3, B2 bradykinin receptor (Homo sapiens, UniProt P30411); type: cell membranes, Membrane; conditions: chem-1; note: in other assays of this panel Not Active means under 50% inhibition at 10 µM
T3 sequence (P30411 whole entry): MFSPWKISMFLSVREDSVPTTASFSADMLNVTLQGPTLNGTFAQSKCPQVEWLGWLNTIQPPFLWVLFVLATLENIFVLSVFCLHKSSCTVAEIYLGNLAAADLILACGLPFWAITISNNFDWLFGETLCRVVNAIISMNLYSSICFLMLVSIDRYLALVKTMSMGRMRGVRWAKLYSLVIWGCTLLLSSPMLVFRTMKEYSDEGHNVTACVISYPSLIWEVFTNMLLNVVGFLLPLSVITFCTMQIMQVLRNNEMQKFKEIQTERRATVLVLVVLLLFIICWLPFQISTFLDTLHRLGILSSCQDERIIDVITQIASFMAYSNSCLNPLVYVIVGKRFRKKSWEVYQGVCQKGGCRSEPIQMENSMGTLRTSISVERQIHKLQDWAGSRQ

[4] = DRUGMATRIX: GABAA, Flunitrazepam, Central radioligand binding (ligand: [3H] Flunitrazepam); type: cell membranes, Rattus norvegicus, Wistar, Brain, Membrane; conditions: Not Active = under 50% inhibition at 10 µM
[5] = molecular target: Insulin receptor (Rattus norvegicus, UniProt P15127); type: cell membranes, Wistar, Liver, Membrane; note: in other assays of this panel Not Active means under 50% inhibition at 10 µM
[6] = molecular target: T4, D(4) dopamine receptor (Homo sapiens, UniProt P21917); test: DRUGMATRIX: Dopamine D4.2 radioligand binding (ligand: [3H] Spiperone); type: cell membranes, CHO-K1, Membrane; conditions: cho-k1; Not Active = under 50% inhibition at 10 µM
T4 sequence (P21917 whole entry): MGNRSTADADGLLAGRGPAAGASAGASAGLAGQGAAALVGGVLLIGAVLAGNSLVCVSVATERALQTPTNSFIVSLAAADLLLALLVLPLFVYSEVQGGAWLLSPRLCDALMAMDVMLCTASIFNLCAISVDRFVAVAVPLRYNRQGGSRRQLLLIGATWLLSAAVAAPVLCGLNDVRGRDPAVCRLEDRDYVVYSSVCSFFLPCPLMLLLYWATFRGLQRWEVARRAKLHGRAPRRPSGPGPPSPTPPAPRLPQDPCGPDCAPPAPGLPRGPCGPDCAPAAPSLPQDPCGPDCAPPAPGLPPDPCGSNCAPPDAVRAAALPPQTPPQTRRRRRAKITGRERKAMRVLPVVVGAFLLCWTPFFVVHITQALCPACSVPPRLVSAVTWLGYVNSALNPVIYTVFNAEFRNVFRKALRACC

Insulin receptor, sequence (P15127 27-759 limits assumed): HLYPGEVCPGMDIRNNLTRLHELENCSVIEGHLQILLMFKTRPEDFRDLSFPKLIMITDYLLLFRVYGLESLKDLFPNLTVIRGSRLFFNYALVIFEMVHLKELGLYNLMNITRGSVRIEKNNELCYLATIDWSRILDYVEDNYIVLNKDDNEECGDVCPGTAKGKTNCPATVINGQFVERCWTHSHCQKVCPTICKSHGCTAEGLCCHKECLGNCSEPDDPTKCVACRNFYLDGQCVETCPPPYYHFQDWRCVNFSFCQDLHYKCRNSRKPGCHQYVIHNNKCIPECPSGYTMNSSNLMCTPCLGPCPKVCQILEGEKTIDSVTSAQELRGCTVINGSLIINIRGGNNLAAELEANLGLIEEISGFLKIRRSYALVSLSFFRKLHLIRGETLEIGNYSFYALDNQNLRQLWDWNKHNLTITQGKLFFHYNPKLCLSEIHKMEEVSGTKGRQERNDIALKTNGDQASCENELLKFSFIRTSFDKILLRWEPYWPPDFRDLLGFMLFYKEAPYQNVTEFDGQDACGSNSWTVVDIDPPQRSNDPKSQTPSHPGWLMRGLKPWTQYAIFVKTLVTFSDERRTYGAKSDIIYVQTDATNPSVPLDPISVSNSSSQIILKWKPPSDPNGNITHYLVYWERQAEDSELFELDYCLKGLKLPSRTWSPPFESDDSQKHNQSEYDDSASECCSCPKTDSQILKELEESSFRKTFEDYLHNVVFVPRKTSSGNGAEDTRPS
Insulin receptor, sequence (P15127 764-1383 limits assumed): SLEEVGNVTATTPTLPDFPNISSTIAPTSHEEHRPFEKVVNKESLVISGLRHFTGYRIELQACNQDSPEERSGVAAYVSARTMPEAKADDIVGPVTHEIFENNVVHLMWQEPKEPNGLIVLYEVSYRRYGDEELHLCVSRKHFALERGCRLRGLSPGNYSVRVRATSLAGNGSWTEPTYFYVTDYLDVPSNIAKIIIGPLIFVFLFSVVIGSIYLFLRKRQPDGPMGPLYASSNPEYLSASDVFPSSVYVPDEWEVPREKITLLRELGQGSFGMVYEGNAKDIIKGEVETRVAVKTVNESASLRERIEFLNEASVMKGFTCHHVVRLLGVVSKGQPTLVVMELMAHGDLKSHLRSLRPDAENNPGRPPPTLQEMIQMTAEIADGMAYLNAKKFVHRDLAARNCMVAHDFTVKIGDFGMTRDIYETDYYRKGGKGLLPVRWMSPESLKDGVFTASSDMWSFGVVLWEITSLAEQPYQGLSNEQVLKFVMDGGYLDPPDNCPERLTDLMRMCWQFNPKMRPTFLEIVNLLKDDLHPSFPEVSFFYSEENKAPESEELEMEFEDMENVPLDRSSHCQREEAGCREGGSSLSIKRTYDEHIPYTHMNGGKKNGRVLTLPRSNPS

SMILES	IC50 [1]	IC50 [2]	IC50 [3]	IC50 [4]	Ki [4]	IC50 [5]	IC50 [6]	pIC50 ([4]; read-out: IC50)	pKi ([4]; read-out: Ki)
NCC1(CC(=O)O)CCCCC1 [GABAPENTIN]	Not Active	Not Active	Not Active	Not Active	Not Active	Not Active	Not Active	–	–
CC[N+](CC)(CC)CCOc1cccc(OCC[N+](CC)(CC)CC)c1OCC[N+](CC)(CC)CC.[I-].[I-].[I-] [GALLAMINE TRIETHIODIDE]	Not Active	Not Active	Not Active	Not Active	Not Active	Not Active	Not Active	–	–
Nc1nc2c(ncn2COC(CO)CO)c(=O)[nH]1 [GANCICLOVIR]	Not Active	Not Active	Not Active	Not Active	Not Active	Not Active	Not Active	–	–
COc1c(N2CCNC(C)C2)c(F)cc2c(=O)c(C(=O)O)cn(C3CC3)c12 (centres undefined) [GATIFLOXACIN]	Not Active	Not Active	Not Active	Not Active	Not Active	Not Active	Not Active	–	–
NCC(=O)O [GLYCINE]	Not Active	Not Active	Not Active	Not Active	Not Active	Not Active	Not Active	–	–
CC1(C)[C@@H](O[C@H]2O[C@H](C(=O)O)[C@@H](O)[C@H](O)[C@H]2O[C@@H]2O[C@H](C(=O)O)[C@@H](O)[C@H](O)[C@H]2O)CC[C@]2(C)[C@H]3C(=O)C=C4[C@@H]5C[C@@](C)(C(=O)O)CC[C@]5(C)CC[C@@]4(C)[C@]3(C)CC[C@@H]12 [GLYCYRRHIZIN]	Not Active	Not Active	Not Active	Not Active	Not Active	Not Active	Not Active	–	–
COC1=CC(=O)C[C@@H](C)[C@]12Oc1c(Cl)c(OC)cc(OC)c1C2=O [GRISEOFULVIN]	Not Active	Not Active	Not Active	Not Active	Not Active	Not Active	Not Active	–	–
C/C=C1\[C@H]2C=C(C)C[C@]1(N)c1ccc(=O)[nH]c1C2 [HUPERZINE A]	Not Active	Not Active	Not Active	Not Active	Not Active	Not Active	Not Active	–	–
NS(=O)(=O)c1cc2c(cc1Cl)NCNS2(=O)=O [HYDROCHLOROTHIAZIDE]	Not Active	Not Active	Not Active	Not Active	Not Active	Not Active	Not Active	–	–
O=P1(NCCCl)OCCCN1CCCl (centres undefined) [IFOSFAMIDE]	Not Active	Not Active	Not Active	Not Active	Not Active	Not Active	Not Active	–	–
CN1CCC[C@H]1c1cccnc1 [NICOTINE]	Not Active	Not Active	Not Active	Not Active	Not Active	Not Active	Not Active	–	–
O=C1CN=C(c2ccccc2)c2cc([N+](=O)[O-])ccc2N1 [NITRAZEPAM]	Not Active	Not Active	Not Active	–	–	Not Active	Not Active	7.26	7.35
CNCCC=C1c2ccccc2CCc2ccccc21 [NORTRIPTYLINE]	Not Active	Not Active	Not Active	Not Active	Not Active	Not Active	Not Active	–	–
CC1COc2c(N3CCN(C)CC3)c(F)cc3c(=O)c(C(=O)O)cn1c23 (centres undefined) [OFLOXACIN]	Not Active	Not Active	Not Active	Not Active	Not Active	Not Active	Not Active	–	–
Oc1cccc2cccnc12 [OXYQUINOLINE]	Not Active	Not Active	Not Active	Not Active	Not Active	Not Active	Not Active	–	–
CN(C)[C@@H]1C(O)=C(C(N)=O)C(=O)[C@@]2(O)C(O)=C3C(=O)c4c(O)cccc4[C@@](C)(O)[C@H]3[C@H](O)[C@@H]12 [OXYTETRACYCLINE]	Not Active	Not Active	Not Active	Not Active	Not Active	Not Active	Not Active	–	–
Fc1ccc([C@@H]2CCNC[C@H]2COc2ccc3c(c2)OCO3)cc1 [PAROXETINE]	Not Active	Not Active	Not Active	Not Active	Not Active	Not Active	Not Active	–	–
